Consider 14 compounds from PubChem BioAssay AID248 (DTP/NCI, 2004).

The test relates to L1210 leukemia ip in BDF1 mice, survival T/C. As to the kind of experiment: NCI In Vivo Anticancer Drug Screen. Data for tumor model L1210 Leukemia (intraperitoneal) in B6D2F1 (BDF1) mice. The note with it: endpoint: mean survival time, higher = longer survival. The method, boiled down: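 Tumor cells were implanted, animals were treated, and survival was followed. The result divides the treated measurement by the vehicle-control measurement.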

Setting [1] is: dose: 5.0 mg/kg/injection, schedule: Q01DX009 (ip), vehicle: saline.
The mark [2] stands for this setting: dose: 10.0 mg/kg/injection, schedule: Q01DX009 (ip), vehicle: saline.
Where [3] appears, read: dose: 100.0 mg/kg/injection, schedule: Q01DX009 (ip), vehicle: Klucel (hydroxypropylcellulose) (HPC).
Where [4] appears, read: dose: 400.0 mg/kg/injection, schedule: Q01DX009 (ip), vehicle: Klucel (hydroxypropylcellulose) (HPC).
Where [5] appears, read: dose: 100.0 mg/kg/injection, schedule: Q04DX002 (ip), vehicle: Klucel (hydroxypropylcellulose) (HPC).
Where [6] appears, read: dose: 200.0 mg/kg/injection, schedule: Q04DX002 (ip), vehicle: Klucel (hydroxypropylcellulose) (HPC).

Values joined by “and” are separate entries in the source; they are usually repeats but may differ in a detail not shown here. Equal values may be shown once. Inconclusive results and toxic doses are left out.

As to `O=P(O)(O)OCC(O)CF` (stereo unspecified), the T/C was 89 % of control (dose: 2.5 mg/kg/injection, schedule: Q01DX009 (ip), vehicle: saline); 93 % of control under setting [1]; 94 % of control under setting [2]; 109 % of control (dose: 44.0 mg/kg/injection, schedule: Q04DX003 (ip), vehicle: saline); 100 % of control (dose: 88.0 mg/kg/injection, schedule: Q04DX003 (ip), vehicle: saline); 96 % of control (dose: 115.5 mg/kg/injection, schedule: Q04DX003 (ip), vehicle: saline). Further, the T/C (dose: 175.0 mg/kg/injection, schedule: Q04DX003 (ip), vehicle: saline) is 92 % of control.

As for `O=C(Nc1ccc(C2=NCCN2)cc1)c1cncc(C(=O)Nc2ccc(C3=NCCN3)cc2)n1`, the T/C is 109 % of control (dose: 31.0 mg/kg/injection, schedule: Q01DX Z (ip), vehicle: carboxymethylcellulose (CMC)); 94 % of control (dose: 62.5 mg/kg/injection, schedule: Q01DX Z (oral), vehicle: water); 168 % of control (dose: 125.0 mg/kg/injection, schedule: Q01DX Z (ip), vehicle: carboxymethylcellulose (CMC)); 100 % of control (dose: 125.0 mg/kg/injection, schedule: Q01DX Z (oral), vehicle: water); 227 % of control (dose: 250.0 mg/kg/injection, schedule: Q01DX Z (ip), vehicle: carboxymethylcellulose (CMC)); 97 % of control (dose: 250.0 mg/kg/injection, schedule: Q01DX Z (oral), vehicle: water). For the same compound, under “dose: 500.0 mg/kg/injection, schedule: Q01DX Z (oral), vehicle: water”, the T/C is 97 % of control.

Consider `COC(=O)C#CC(c1ccccc1)(c1ccccc1)c1ccccc1`, for which the T/C is, setting by setting: (dose: 100.0 mg/kg/injection, schedule: Q04DX003 (ip), vehicle: saline with Tween-80) 90 % of control; (dose: 200.0 mg/kg/injection, schedule: Q04DX003 (ip), vehicle: saline with Tween-80) 87 % of control; (dose: 400.0 mg/kg/injection, schedule: Q04DX003 (ip), vehicle: saline with Tween-80) 90 % of control.

Regarding `CCN(CC)P(=O)(N1CC1(C)C)N1CC1(C)C` (stereo unspecified), the T/C runs as follows: (dose: 88.0 mg/kg/injection, schedule: Q01DX001 (ip), vehicle: carboxymethylcellulose (CMC)) 114 % of control; (dose: 88.0 mg/kg/injection, schedule: Q01DX001 (ip), vehicle: saline) 102 % of control; (dose: 100.0 mg/kg/injection, schedule: Q01DX001 (ip), vehicle: saline) 118 % of control; (dose: 133.0 mg/kg/injection, schedule: Q01DX001 (ip), vehicle: carboxymethylcellulose (CMC)) 118 % of control; (dose: 133.0 mg/kg/injection, schedule: Q01DX001 (ip), vehicle: saline) 107 % of control; (dose: 200.0 mg/kg/injection, schedule: Q01DX001 (ip), vehicle: carboxymethylcellulose (CMC)) 114 % of control. Further, the T/C (dose: 300.0 mg/kg/injection, schedule: Q01DX001 (ip), vehicle: saline) was 115 % of control.

For the compound `Cc1cccc(Cl)c1NC(=O)N(Cc1ccccc1)Cc1ccccc1`, the T/C under setting [3] is 100 % of control; the T/C (dose: 200.0 mg/kg/injection, schedule: Q01DX009 (ip), vehicle: Klucel (hydroxypropylcellulose) (HPC)) is 105 % of control; the T/C under setting [4] is 97 % of control.

Regarding `CCCCCCCCN(C)N=Nc1ccc(C(N)=O)cc1`, the T/C by setting is: (dose: 118.0 mg/kg/injection, schedule: Q01DX009 (ip), vehicle: Klucel (hydroxypropylcellulose) (HPC)) 122 % of control; (dose: 175.0 mg/kg/injection, schedule: Q01DX009 (ip), vehicle: Klucel (hydroxypropylcellulose) (HPC)) 115 % of control.

Regarding `CCC(=O)NC1=C(N2CC2)C(=O)C(NC(=O)CC)=C(N2CC2)C1=O`, the T/C by setting is: (dose: 0.31 mg/kg/injection, schedule: Q01DX009 (ip), vehicle: Klucel (hydroxypropylcellulose) (HPC)) 121 % of control; (dose: 1.25 mg/kg/injection, schedule: Q01DX001 (ip), vehicle: saline with Tween-80) 115 % of control; (dose: 1.25 mg/kg/injection, schedule: Q01DX001 (ip), vehicle: saline) 108 % of control; (dose: 1.25 mg/kg/injection, schedule: Q01DX009 (ip), vehicle: Klucel (hydroxypropylcellulose) (HPC)) 162 % of control; (dose: 2.5 mg/kg/injection, schedule: Q01DX001 (ip), vehicle: saline) 119 % of control; (dose: 2.5 mg/kg/injection, schedule: Q04DX003 (ip), vehicle: Klucel (hydroxypropylcellulose) (HPC)) 175 % of control. For the same compound, the T/C is, setting by setting: (dose: 5.0 mg/kg/injection, schedule: Q01DX001 (ip), vehicle: saline with Tween-80) 167 % of control; (dose: 5.0 mg/kg/injection, schedule: Q01DX009 (ip), vehicle: Klucel (hydroxypropylcellulose) (HPC)) 104 % of control; under setting [1], 100 % of control; (dose: 5.0 mg/kg/injection, schedule: Q04DX003 (ip), vehicle: Klucel (hydroxypropylcellulose) (HPC)) 102 % of control; (dose: 10.0 mg/kg/injection, schedule: Q01DX001 (ip), vehicle: saline with Tween-80) 169 % of control; under setting [2], 93 % of control. For the same compound, the T/C (dose: 10.0 mg/kg/injection, schedule: Q04DX003 (ip), vehicle: Klucel (hydroxypropylcellulose) (HPC)) was 90 % of control.

As for `O=C(/C=C/c1ccc2c(c1)OCO2)c1ccc(OCc2ccccc2)cc1`, the T/C runs as follows: (dose: 25.0 mg/kg/injection, schedule: Q04DX002 (ip), vehicle: saline) 111 % of control; (dose: 50.0 mg/kg/injection, schedule: Q04DX002 (ip), vehicle: saline) 108 % of control; (dose: 100.0 mg/kg/injection, schedule: Q04DX002 (ip), vehicle: saline) 118 % of control; (dose: 200.0 mg/kg/injection, schedule: Q04DX002 (ip), vehicle: saline) 96 % of control; (dose: 400.0 mg/kg/injection, schedule: Q04DX002 (ip), vehicle: saline) 92 % of control.

With `O=C(Nc1ccc(Cl)cc1)SCCSC(=O)Nc1ccc(Cl)cc1`, the T/C is, setting by setting: (dose: 100.0 mg/kg/injection, schedule: Q04DX002 (ip), vehicle: other) 97 % of control and 101 % of control; (dose: 100.0 mg/kg/injection, schedule: Q04DX003 (ip), vehicle: other) 98 % of control and 105 % of control; (dose: 200.0 mg/kg/injection, schedule: Q04DX002 (ip), vehicle: other) 93 % of control and 101 % of control; (dose: 200.0 mg/kg/injection, schedule: Q04DX003 (ip), vehicle: other) 94 % of control and 89 % of control; (dose: 400.0 mg/kg/injection, schedule: Q04DX002 (ip), vehicle: other) 95 % of control and 90 % of control; (dose: 400.0 mg/kg/injection, schedule: Q04DX003 (ip), vehicle: other) 95 % of control and 91 % of control.

Turning to `O=C1c2ccccc2C(=O)c2c(Nc3cccc(S(=O)(=O)N(CCO)CCO)c3)ccc(O)c21`, the T/C was 97 % of control (dose: 50.0 mg/kg/injection, schedule: Q01DX009 (ip), vehicle: saline with Tween-80); 97 % of control (dose: 100.0 mg/kg/injection, schedule: Q01DX009 (ip), vehicle: saline with Tween-80); 97 % of control (dose: 200.0 mg/kg/injection, schedule: Q01DX009 (ip), vehicle: saline with Tween-80).

With `NNC(=O)C(Cc1cnc[nH]1)NC(=O)OCc1ccccc1` (stereo unspecified), the T/C is, setting by setting: under setting [5], 100 % of control; under setting [6], 90 % of control; (dose: 400.0 mg/kg/injection, schedule: Q04DX002 (ip), vehicle: Klucel (hydroxypropylcellulose) (HPC)) 107 % of control.

Turning to `C=CCN1C(=O)C(c2ccccc2)C2(CCN(C)CC2)C1=O` (stereo unspecified), the T/C was 108 % of control (dose: 25.0 mg/kg/injection, schedule: Q01DX001 (ip), vehicle: Klucel (hydroxypropylcellulose) (HPC)); 108 % of control (dose: 50.0 mg/kg/injection, schedule: Q01DX001 (ip), vehicle: Klucel (hydroxypropylcellulose) (HPC)); 98 % of control and 104 % of control (dose: 100.0 mg/kg/injection, schedule: Q01DX001 (ip), vehicle: Klucel (hydroxypropylcellulose) (HPC)).

As for `Cc1ccc([N+](=O)[O-])cc1NC(=O)Nc1ccccc1O`, the T/C was 92 % of control under setting [3] and 87 % of control under setting [4].

With `OC1C2CCN(CC2)C1C(c1ccccc1)c1ccc(F)cc1` (stereo unspecified), the T/C was 91 % of control under setting [5] and 87 % of control under setting [6].
